According to the NIST ThermoML archive (doi:10.1021/je100145f):
Values joined by “and” are separate entries in the source; they are usually repeats but may differ in a detail not shown here. Equal values may be shown once.

Key:
[1] = 101 kPa, Liquid, Vibrating tube method
[2] = molar heat capacity at constant pressure; details: 101 kPa, Liquid, Small sample (50 mg) DSC
[3] = molar heat capacity at constant pressure; xn = mol fraction of the nth substance listed; details: 101 kPa, Liquid, Small sample (50 mg) DSC, x2 = 0
[4] = xn = mol fraction of the nth substance listed; details: 101 kPa, Liquid, Vibrating tube method, x2 = 0

N#Cc1ccccc1 [benzonitrile]
Details	mass density, [1] [kg/m3]	molar heat capacity at constant pressure, [2]
283.15 K	1013.99	163.43 J/K/mol
285.15 K	1012.21	163.9 J/K/mol
288.15 K	1009.55	164.61 J/K/mol and 164.63 J/K/mol
293.15 K	1005.12	165.82 J/K/mol
298.15 K	1000.69	167.06 J/K/mol
303.15 K	996.26	168.32 J/K/mol
308.15 K	991.83	169.59 J/K/mol
313.15 K	987.4	170.87 J/K/mol
318.15 K	982.96	172.15 J/K/mol

CCCCCCCCC [nonane]
Details	mass density, [1] [kg/m3]	molar heat capacity at constant pressure, [2] [J/K/mol]
285.15 K	724.54	278.38
288.15 K	722.22	279.6
293.15 K	718.35	281.72
298.15 K	714.46	283.86
303.15 K	710.55	286.11
308.15 K	706.63	288.4
313.15 K	702.7	290.76

CCCCCCCCC [nonane] + N#Cc1ccccc1
Details	mass density, [4] [kg/m3]	molar heat capacity at constant pressure, [3] [J/K/mol]
285.15 K	724.54	278.38
288.15 K	722.22	279.6
293.15 K	718.35	281.72
298.15 K	714.46	283.86
303.15 K	710.55	286.11
308.15 K	706.63	288.4
313.15 K	702.7	290.76

CCCCCCCC [octane]
Details	mass density, [1] [kg/m3]	molar heat capacity at constant pressure, [2] [J/K/mol]
283.15 K	710.76	248.2
288.15 K	706.76	250.1
293.15 K	702.74	252.06
298.15 K	698.71	254.08
303.15 K	694.66	256.16
308.15 K	690.58	258.28
313.15 K	686.49	260.45
318.15 K	682.37	262.66

CCCCCCCC [octane] + N#Cc1ccccc1
Details	mass density, [4] [kg/m3]	molar heat capacity at constant pressure, [3] [J/K/mol]
283.15 K	710.76	248.2
288.15 K	706.76	250.1
293.15 K	702.74	252.06
298.15 K	698.71	254.08
303.15 K	694.66	256.16
308.15 K	690.58	258.28
313.15 K	686.49	260.45
318.15 K	682.37	262.66
